Twelve molecules from ChEMBL document CHEMBL6121042, “Isolation of Antiplasmodial Oxazoles and Isoflavonoids from the Roots of Oxytropis trichophysa and Total Synthesis of Oxazole-type Alkaloids” (J Nat Prod, 2025) can be followed below.

As a reminder, the CC50 is the concentration that lowers cell viability or growth by half. As a reminder, the IC50 is the point on the concentration scale where inhibition reaches its midpoint.

The source made the active and inactive calls. No cut-off for these calls is given here.

A short description of data set [1]: Cytotoxicity against human HFF cells assessed as reduction in cell viability incubated for 72 hrs by CCK-8 assay. Format: toxicity, cell-based. A general note: Tetrazolium assays rely on reduction of a dye to a coloured formazan, in cell work by metabolically active cells.
Data set [2] in a line: Selectivity index, ratio of CC50 for human HFF cells to IC50 for Plasmodium falciparum 3D7. The format is toxicity, cell-based. Particulars: read-out: Selectivity Index.
Data set [3] has as its system Plasmodium falciparum. Description: Antiplasmodial activity against Plasmodium falciparum 3D7 infected in red blood cells assessed as parasitic growth inhibition incubated for 72 hrs by SYBR Green I staining based analysis. Format: functional, organism-based. Conditions: for IC50: 3D7, 72 h.

For the molecule `c1ccc(COc2ccc(-c3ncc(-c4ccccc4OCc4ccccc4)o3)cc2)cc1`, in data set [1], the half-maximal cytotoxic concentration (CC50) at 72 h turned out to be 72 µM. Further, the selectivity ratio in data set [2] turned out to be 14.8. Moreover, the IC50 in data set [3] amounted to 4.8 µM.

For the molecule `COc1ccc([C@@H]2COc3cc(O)ccc3C2)c(OC)c1O`, the outcome in data set [3] was inactive.

With `COc1c(O)cc([C@@H]2COc3cc(O)ccc3C2)c(O)c1OC`, the cytotoxic concentration (CC50) at 72 h in data set [1] is 5.6 µM. For the same molecule, the selectivity ratio in data set [2] came to 0.9. Moreover, the IC50 in data set [3] is 6.2 µM.

As for `COc1cc([C@@H]2COc3cc(O)ccc3C2)c(O)c(OC)c1OC`, in data set [3], the outcome was inactive.

With `COc1ccc([C@@H]2COc3cc(O)ccc3C2)c(O)c1OC`, the outcome in data set [3] was inactive.

Consider `COc1ccc2c(c1OC)O[C@H]1c3ccc(O)cc3OC[C@@H]21`, for which the result in data set [3] was inactive.

For `Oc1ccc(O)c(-c2cnc(-c3ccccc3)o2)c1`, the CC50 at 72 h in data set [1] was found to be 69.3 µM. Moreover, the selectivity ratio in data set [2] is 9.4. The IC50 in data set [3] was 5.5 µM.

With `COC1=C(OC)C(=O)C([C@@H]2COc3cc(O)ccc3C2)=CC1=O`, in data set [1], the CC50 at 72 h turned out to be 13.7 µM. For the same molecule, in data set [2], the selectivity ratio worked out at 2.3. The IC50 in data set [3] turned out to be 5.8 µM.

`C[C@@H]1CC[C@H]2[C@@H](C)C(=O)O[C@@H]3O[C@@]4(C)CC[C@@H]1[C@]32OO4` [ARTEMISININ]: the CC50 at 72 h in data set [1] is over 200 µM. Further, the selectivity ratio in data set [2] was over 7890. The IC50 in data set [3] stood at 0.025 µM.

With `COc1c(O)cc2c(c1OC)O[C@H]1c3ccc(O)cc3OC[C@@H]21`, the result in data set [3] was inactive.

With `Oc1cccc(-c2cnc(-c3ccccc3)o2)c1O`, the CC50 at 72 h in data set [1] was 8.5 µM. Also, the selectivity ratio in data set [2] was 2.7. Besides, the IC50 in data set [3] turned out to be 3.1 µM.

In the case of `Oc1ccccc1-c1cnc(-c2ccccc2)o1`, the CC50 at 72 h in data set [1] is over 100 µM. In data set [2], the selectivity ratio was over 18.8. Also, the IC50 in data set [3] amounted to 4.6 µM.
